# US10106582B2, “Complex-formation-modulating agents and uses therefor” (Factor Therapeutics Limited, priority 2012, dated 2018)
# Test system: MCF-7 cells
# Experiment: 3D Matrigel growth assay of MCF-7 tumor spheroids
# Type: cell-based, human
# From the text: FIG. 7 is a photographic and graphical representation showing MCF-7 3D cell growth in response to peptide antagonists. MCF-7 cells suspended in media containing 1% serum and 2.5% Matrigel (Matrigel media) were layered onto a thin layer of 100% Matrigel. Spheroids were allowed to form in Matrigel media containing VN, TRI or TRI supplemented with peptides P7 and P8. Cells were allowed to grow for 14 days with media+proteins changed every 3 days. (A) Phase contrast and fluorescence microscopy was used to obtain images of the spheroids treated with 90 nM P7, P8 or P7+8. The fluorescent images were subjected to analysis using Image J to calculate spheroid sizes. The images post-ImageJ analyses are depicted in the bottom panel of A. All the images depicted are representative images obtained from triplicate experiments with treatments tested in duplicates in each replicate experiment. Scale bar denotes 100 μm. (B) Scatter plot depicts mean spheroid size (μm^2) at Day 14 for each treatment, calculated using Image-J (90 nM peptide treatments are depicted here). Each data point in the graph is the average size of all spheroids present in a single field of view at 40× magnification. ** denotes p<0.01 and * denotes p<0.05. (C) To measure cell viability/proliferation the 3D culture was treated on Day 14 with 5% Alamar Blue dye for 4 hours and fluorescence intensities were recorded. Error bars indicate SEM. ** denotes p<0.01 Vs TRI and * denotes p<0.05 Vs TRI. The experiment was repeated twice with treatments tested in duplicate wells in each replicate experiment. TRI=IGF-I:IGFBP-5:VN trimeric complex (equimolar at 10 nM concentrations).
# To closely mimic in vivo conditions, cells were grown in a 3D matrix (Matrigel) closely resembling in vivo extracellular matrix physiology. MCF-7 cells suspended in growth media containing 1% serum and 2.5% Matrigel (Matrigel media) were layered onto a thin layer of 100% Matrigel. Tumor spheroids were allowed to form for 3 days after which spent media was replenished with Matrigel media containing VN only, trimeric complex, or trimeric complex supplemented with increasing concentrations of peptides (P7, P8 or P7+P8). Cells were allowed to grow for additional 11 days with media+proteins changed every 3 days. Spheroid morphology was assessed using phase-contrast microscopy and cell viability was measured using AlamarBlue, a fluorescent metabolic dye.
sequence,measurement,setting,value
"LFSSEESNLGANNYDDYRMDWL (listed as Homo sapiens) [Peptide P7, human VN motif 7 mimic]",TRI-stimulated cell viability (AlamarBlue),"90 nM peptide, Day 14, 3D Matrigel culture",significantly inhibit
same,Size of TRI-treated tumor spheroids (phase-contrast microscopy),"increasing concentrations of peptides, Matrigel 3D culture, 14 days",decrease with increasing concentrations
